The target of test [1] is T1, acetylcholinesterase (AChE) (Rattus norvegicus, UniProt P37136).
T1 construct: from tissue; host or cells: rat brain cortex
T1 sequence (P37136 32-614): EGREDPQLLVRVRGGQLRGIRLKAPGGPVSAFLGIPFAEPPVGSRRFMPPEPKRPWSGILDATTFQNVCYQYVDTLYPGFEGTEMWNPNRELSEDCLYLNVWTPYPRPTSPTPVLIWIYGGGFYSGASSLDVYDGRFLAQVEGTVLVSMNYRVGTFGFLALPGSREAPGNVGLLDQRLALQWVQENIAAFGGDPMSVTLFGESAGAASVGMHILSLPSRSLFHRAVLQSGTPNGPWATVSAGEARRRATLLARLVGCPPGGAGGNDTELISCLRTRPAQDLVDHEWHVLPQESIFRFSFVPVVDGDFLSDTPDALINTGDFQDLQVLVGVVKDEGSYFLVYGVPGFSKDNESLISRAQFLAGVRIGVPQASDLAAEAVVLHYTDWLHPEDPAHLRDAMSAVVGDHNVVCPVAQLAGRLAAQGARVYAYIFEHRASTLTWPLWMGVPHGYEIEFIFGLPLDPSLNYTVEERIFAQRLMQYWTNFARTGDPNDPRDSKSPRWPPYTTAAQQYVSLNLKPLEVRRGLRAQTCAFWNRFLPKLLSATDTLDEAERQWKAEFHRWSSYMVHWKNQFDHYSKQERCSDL
Briefly: In vitro inhibition of AChE (cholinesterase assay, Ellman method). The test is classed as biochemical. The method, then: The in vitro inhibition of the enzymes acetylcholinesterase (AChE) and butyrylcholinesterase (BChE) were assessed. BChE, like AChE, breaks down acetylcholine (ACh) but is found in plasma and other organs such as the liver, skin and gastrointestinal tract.
The enzymes, AChE and BChE, used in the inhibition studies were prepared from the cortex and serum of decapitated rats, respectively.
Background: In Ellman's method for cholinesterases, released thiocholine reacts with DTNB.

For test [2], the target named is T2, butyrylcholinesterase (BChE) (Rattus norvegicus, UniProt Q9JKC1).
T2 construct: from tissue; host or cells: rat serum
T2 sequence (Q9JKC1 24-597): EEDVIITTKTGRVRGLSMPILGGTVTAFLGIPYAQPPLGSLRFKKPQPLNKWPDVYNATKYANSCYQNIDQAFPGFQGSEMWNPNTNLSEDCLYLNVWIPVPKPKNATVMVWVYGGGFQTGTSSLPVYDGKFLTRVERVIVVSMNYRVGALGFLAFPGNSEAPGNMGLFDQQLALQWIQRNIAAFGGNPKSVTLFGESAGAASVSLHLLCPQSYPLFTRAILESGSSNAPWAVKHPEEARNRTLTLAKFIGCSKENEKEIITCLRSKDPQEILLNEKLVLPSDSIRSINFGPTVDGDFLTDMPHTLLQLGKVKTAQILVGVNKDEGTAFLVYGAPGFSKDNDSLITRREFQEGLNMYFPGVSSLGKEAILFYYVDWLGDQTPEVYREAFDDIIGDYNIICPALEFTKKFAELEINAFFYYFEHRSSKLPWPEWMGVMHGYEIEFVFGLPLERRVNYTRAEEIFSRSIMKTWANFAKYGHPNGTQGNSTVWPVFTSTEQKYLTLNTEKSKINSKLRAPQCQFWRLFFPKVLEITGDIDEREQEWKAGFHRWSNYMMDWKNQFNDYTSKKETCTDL
The test is described as follows: biochemical.

Test [3] concerns scopolamine-induced memory impaired rats. Briefly: Morris water maze, scopolamine-induced memory impairment. Format: in vivo, rat. The following applies: tacrine 1.5 mg/kg, scopolamine 0.1 mg/kg i.p. The method, then: The Morris water maze consists of a water pool with a hidden, submerged escape platform. The rats must learn, over a period of consecutive days, the location of the platform using either contextual or local cues. The time taken to locate the hidden platform (escape latency) is a measure of the animal's cognitive abilities.
Scopolamine (0.1 mg/kg) was first i.p. administered to young adult rats to impair their memories. Scopolamine-induced memory impaired rats were then orally administered one of three different doses of compound B (0.025, 0.050, or 0.100 mg/kg) and subjected to the Morris water maze over a period of 4 days. On each day, the time taken for the rats to detect the hidden platform in the water maze was measured, in seconds.
Scopolamine (0.1 mg/kg) was first i.p. administered to young adult rats to impair their memories. Scopolamine-induced memory impaired rats were then orally administered one of three different doses of compound C (0.1, 0.2, or 0.4 mg/kg) and subjected to the Morris water maze over a period of 4 days. On each day, the time taken for the rats to detect the hidden platform in the water maze was measured, in seconds.
Scopolamine (0.1 mg/kg) was first i.p. administered to young adult rats to impair their memories. Scopolamine-induced memory impaired rats were then orally administered one of three different doses of compound A (0.1, 0.2, or 0.4 mg/kg) and subjected to the Morris water maze over a period of 4 days. On each day, the time taken for the rats to detect the hidden platform in the water maze was measured, in seconds.
A spatial bias (% of total distance swum in the training quadrant during spatial probe trial) for the region of the apparatus where the platform was positioned during training was also measured for compounds B and C.
The spatial bias for the region of the testing apparatus where the hidden platform was positioned during training was measured. […] Tacrine (THA) was included for comparison purposes.

Results on two compounds are retold here after patent US7605265B2, “Heterodimers and methods of using them” (priority 2007, dated 2009).

In the case of `O=c1ccc2c([nH]1)CCCC2NCCCCCCCCNc1c2c(nc3ccccc13)CCCC2` (stereo not shown) [Compound D], the “Selectivity AchE*” value in test [1] (IC50 (BChE)/IC50 (AChE)) is 31.52. The IC50 (commonly the concentration at which inhibition is half-maximal) in test [1] (enzyme prepared from rat cortex) turned out to be 13.6 ± 1.76 nM; in test [2] it was 430 ± 46.7 nM.
For `Nc1c2c(nc3ccccc13)CCCC2` [Tacrine, reference compound], the “escape latency, compared with the novel compound” value in test [3] is on record as “less effective in shortening escape latency”.
